Experimental data as given in article PMC11310081, “Deep-learning-enabled antibiotic discovery through molecular de-extinction” (Nature Biomedical Engineering, 2024).
In brackets after ≈: the same amount, converted by molar mass. Peptide text beside a SMILES is read from it.

Columns and labels:
[1] = system: 11 clinically relevant bacterial pathogens; format: cell-based; conditions: for Active or Inactive: Supplementary Dataset 2, against the 11 pathogens tested
Outline: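 Single colonies were grown overnight (16 h) at 37 °C in LB, diluted 1:100, regrown to OD600 = 0.3–0.5, then exposed to aqueous peptide solutions from 1 to 64 μmol l^−1 by broth microdilution, with plates read at 600 nm.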

A. baumannii ATCC 19606 [2] = test: Cytoplasmic membrane depolarization assay (DiSC3-5); format: cell-based, Acinetobacter baumannii; conditions: DiSC3-5 fluorescence, peptide at its MIC, polymyxin B as positive control; three replicates
Experimental: The depolarization of the bacterial cytoplasmic membrane was determined by fluorescence measurements of the membrane potential-sensitive dye, DiSC3-5 (ref. [16]). Briefly, A. baumannii ATCC 19606 and P. aeruginosa PAO1 were grown at 37 °C until mid-log phase (OD600 = 0.5). The cells were then centrifuged using the same conditions described for the NPN uptake assays, washed twice with washing buffer containing 20 mmol l^−1 glucose and 5 mmol l^−1 HEPES (pH 7.2). The cells were diluted 1:10 (OD600 = 0.05) in a buffer containing 0.1 mol l^−1 KCl, 20 mmol l^−1 glucose and 5 mmol l^−1 HEPES (pH 7.2). About 100 μl of bacterial solution was then incubated for 15 min with 20 nmol l^−1 of DiSC3-5 until the fluorescence reached a plateau, that is, the dye was fully internalized into the bacterial membrane. Transmembrane potential changes were monitored by observing the difference in the fluorescence emission intensity of DiSC3-5 (λex = 622 nm, λem = 670 nm), after the addition of 100 μl of peptide aqueous solution at its MIC. All assays were performed in three biological replicates. The relative fluorescence values were calculated for the course of the experiment using non-linear fitting, and the untreated control (buffer + bacteria + fluorescent dye) served as baseline. The following equation was applied to show the percentage difference between the fluorescence of the untreated control (baseline) and the sample: Percentagedifference=100×(fluorescencesample−baseline)/baseline

A. baumannii ATCC 19606 [3] = format: cell-based, Acinetobacter baumannii; conditions: ATCC 19606, 20 h
Text: (§1) The following Gram-negative bacteria were used in our study: A. baumannii ATCC 19606, E. coli ATCC 11775, E. coli AIC221 (E. coli MG1655 phnE_2::FRT), E. coli AIC222 (E. coli MG1655 pmrA53 phnE_2::FRT (colistin resistant)), K. pneumoniae ATCC 13883, P. aeruginosa PAO1 and P. aeruginosa PA14. The following Gram-positive bacteria were also used in our study: S. aureus ATCC 12600, S. aureus ATCC BAA-1556 (methicillin-resistant strain), E. faecalis ATCC 700802 (vancomycin-resistant strain) and E. faecium ATCC 700221 (vancomycin-resistant strain). Bacteria were grown from frozen stocks and plated on Luria–Bertani (LB) or Pseudomonas isolation agar plates (P. aeruginosa strains) and incubated overnight at 37 °C. After the incubation period, a single colony was transferred to 5 ml of LB medium, and cultures were incubated overnight (16 h) at 37 °C. The following day, an inoculum was prepared by diluting the overnight cultures 1:100 in 5 ml of the respective media and incubating them at 37 °C until bacteria reached logarithmic phase (OD600 = 0.3–0.5).
(§2) The in vitro antimicrobial activity of the peptides was assessed by using the broth microdilution assay. […] Aqueous solutions of the peptides were added to the plate at concentrations ranging from 1 to 64 μmol l^−1. […] The optical density of the plates was measured at 600 nm using a spectrophotometer. All assays were done as three biological replicates.

HEK293T cells = conditions: 24 h
Outline: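 5,000 cells/well seeded a day ahead in DMEM with 10% FBS, then treated with peptides; viability by MTT (0.5 mg/ml, 4 h, 37 °C), formazan in acidic isopropanol read at 570 nm. Concentration causing 50% lysis from non-linear regression; three biological replicates, two technical each.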

[4] = system: S. aureus ATCC BAA-1556 (methicillin-resistant strain); format: cell-based, Staphylococcus aureus; conditions: ATCC BAA-1556, 20 h
Text: as §1, §2

S. aureus ATCC 12600 = format: cell-based, Staphylococcus aureus; conditions: ATCC 12600, 20 h
Text: as §1, §2

[5] = system: E. faecium ATCC 700221 (vancomycin-resistant strain); format: cell-based, Enterococcus faecium; conditions: ATCC 700221, 20 h
Text: as §1, §2

P. aeruginosa PA14 = format: cell-based, Pseudomonas aeruginosa; conditions: PA14, 20 h
Text: as §1, §2

P. aeruginosa PAO1 = format: cell-based, Pseudomonas aeruginosa; conditions: PAO1, 20 h
Text: as §1, §2

E. coli AIC221 = format: cell-based, Escherichia coli; conditions: AIC221, 20 h
Text: as §1, §2

K. pneumoniae ATCC 13883 = format: cell-based, Klebsiella pneumoniae; conditions: ATCC 13883, 20 h
Text: as §1, §2

E. coli ATCC 11775 = format: cell-based, Escherichia coli; conditions: ATCC 11775, 20 h
Text: as §1, §2

Compound | Active or Inactive [1] | Cytoplasmic membrane depolarization, in words (A. baumannii ATCC 19606 [2]) | Minimal inhibitory concentration, A. baumannii ATCC19606 (A. baumannii ATCC 19606 [3]) | CC50 (HEK293T cells) | TI (therapeutic index) (HEK293T cells) | Minimal inhibitory concentration, S. aureus ATCC BAA-1556-MRSA [4] | Minimal inhibitory concentration, S. aureus ATCC12600 (S. aureus ATCC 12600) | Minimal inhibitory concentration, E. faecium ATCC700221-VRE [5] | MIC (lowest MIC value in the antimicrobial activity assays) ([1]; Supplementary Table 17, lowest MIC among the strains tested) | Minimal inhibitory concentration, P. aeruginosa PA14 (P. aeruginosa PA14) | Minimal inhibitory concentration, P. aeruginosa PAO1 (P. aeruginosa PAO1) | Minimal inhibitory concentration, E. coli AIC221 (E. coli AIC221) | Minimal inhibitory concentration, K. pneumoniae ATCC133883 (K. pneumoniae ATCC 13883) | Minimal inhibitory concentration, E. coli ATCC11775 (E. coli ATCC 11775)
CC[C@H](C)[C@H](NC(=O)[C@H](CCCCN)NC(=O)[C@@H](N)CCCNC(=N)N)C(=O)N[C@@H](CC(C)C)C(=O)NCC(=O)N[C@@H](CC(=O)O)C(=O)N[C@@H](CC(C)C)C(=O)N[C@@H](CCCCN)C(=O)N[C@@H](Cc1ccccc1)C(=O)N[C@@H](CC(C)C)C(=O)N[C@@H](CCC(=O)O)C(=O)N[C@@H](CO)C(=O)N[C@@H](CC(C)C)C(=O)N[C@@H](CCCCN)C(=O)N[C@H](C(=O)N[C@@H](Cc1ccc(O)cc1)C(=O)O)[C@@H](C)O [Anomalopterin-1] (H-RKILGDLKFLESLKTY-OH; N-terminus and C-terminus assumed) | Active | most potent depolarization effects | 64 µM (≈ 123 µg/mL) | > 128 µM | > 2 |  |  |  |  |  |  |  |  | 
CC[C@H](C)[C@H](NC(=O)[C@H](CO)NC(=O)CNC(=O)[C@H](CC(C)C)NC(=O)[C@H](CC(C)C)NC(=O)[C@H](CC(C)C)NC(=O)[C@H](CCCNC(=N)N)NC(=O)[C@H](CCCCN)NC(=O)[C@@H](NC(=O)[C@H](CO)NC(=O)[C@H](CC(N)=O)NC(=O)[C@@H](NC(=O)[C@H](CC(C)C)NC(=O)[C@@H](N)CC(C)C)[C@@H](C)CC)[C@@H](C)CC)C(=O)N[C@@H](CC(C)C)C(=O)O [Arctodutin-1] (H-LLINSIKRLLLGSIL-OH; N-terminus and C-terminus assumed) | Active |  | 8 µM (≈ 13.3 µg/mL) | > 128 µM |  | 8 µM (≈ 13.3 µg/mL) | 8 µM (≈ 13.3 µg/mL) | 2 µM (≈ 3.33 µg/mL) |  |  |  |  |  | 
CC(C)C[C@H](NC(=O)[C@H](CC(C)C)NC(=O)[C@@H](NC(=O)[C@H](CCCNC(=N)N)NC(=O)[C@H](C)NC(=O)[C@H](Cc1ccccc1)NC(=O)[C@H](CCCNC(=N)N)NC(=O)[C@H](CO)NC(=O)[C@H](Cc1c[nH]c2ccccc12)NC(=O)[C@H](CCCNC(=N)N)NC(=O)[C@H](CC(C)C)NC(=O)[C@H](CCCCN)NC(=O)[C@H](CC(C)C)NC(=O)[C@@H](N)Cc1ccccc1)C(C)C)C(=O)O [Equusin-1] (H-FLKLRWSRFARVLL-OH; N-terminus and C-terminus assumed) | Active |  |  | > 128 µM |  | 16 µM (≈ 28.9 µg/mL) |  | 1 µM (≈ 1.81 µg/mL) | 1 µM (≈ 1.81 µg/mL) | 4 µM (≈ 7.22 µg/mL) | 16 µM (≈ 28.9 µg/mL) | 4 µM (≈ 7.22 µg/mL) | 16 µM (≈ 28.9 µg/mL) | 
CC[C@H](C)[C@H](NC(=O)[C@H](Cc1ccc(O)cc1)NC(=O)[C@H](C)NC(=O)[C@@H](N)CCCNC(=N)N)C(=O)N[C@@H](CS)C(=O)N[C@@H](CCCNC(=N)N)C(=O)N[C@@H](CCCCN)C(=O)N[C@@H](CCCCN)C(=O)N[C@@H](Cc1ccccc1)C(=O)N[C@@H](CC(C)C)C(=O)N[C@@H](CO)C(=O)N[C@@H](CC(C)C)C(=O)N[C@@H](CCCNC(=N)N)C(=O)N[C@@H](CCCCN)C(=O)N[C@@H](C)C(=O)N[C@@H](CO)C(=O)N[C@H](C(=O)N[C@@H](CCCCN)C(=O)N[C@@H](CC(C)C)C(=O)N[C@@H](CCC(N)=O)C(=O)N[C@@H](CO)C(=O)N[C@@H](CC(C)C)C(=O)N[C@H](C(=O)N[C@@H](CCCNC(=N)N)C(=O)N[C@@H](CCSC)C(=O)N[C@@H](CCCCN)C(=O)O)C(C)C)[C@@H](C)CC [Equusin-2] (H-RAYICRKKFLSLRKASIKLQSLVRMK-OH; N-terminus and C-terminus assumed) | Active | most potent depolarization effects | 8 µM (≈ 25.1 µg/mL) | > 128 µM | > 16 |  |  |  |  |  |  | 16 µM (≈ 50.2 µg/mL) |  | 
CC[C@H](C)[C@H](NC(=O)[C@H](CCCCN)NC(=O)[C@H](CCCCN)NC(=O)[C@H](Cc1ccccc1)NC(=O)[C@H](Cc1ccccc1)NC(=O)[C@@H](NC(=O)[C@@H](NC(=O)[C@H](CO)NC(=O)[C@H](CCCCN)NC(=O)[C@@H](NC(=O)[C@@H](NC(=O)[C@H](Cc1c[nH]c2ccccc12)NC(=O)[C@H](CCCCN)NC(=O)[C@H](CCCCN)NC(=O)[C@@H](NC(=O)[C@H](CCC(=O)O)NC(=O)[C@H](CCCCN)NC(=O)[C@H](CC(C)C)NC(=O)[C@@H](NC(=O)[C@H](CCCCN)NC(=O)[C@H](CCCNC(=N)N)NC(=O)[C@H](CC(C)C)NC(=O)[C@H](CC(C)C)NC(=O)[C@@H](N)CCCCN)C(C)C)[C@@H](C)O)C(C)C)[C@@H](C)CC)C(C)C)C(C)C)C(=O)N[C@@H](CCCNC(=N)N)C(=O)N[C@@H](CCCCN)C(=O)O [Hesperelin-1] (H-KLLRKVLKETKKWVIKSVVFFKKIRK-OH; N-terminus and C-terminus assumed) | Active |  | 4 µM (≈ 13 µg/mL) | > 128 µM |  |  |  | 2 µM (≈ 6.49 µg/mL) |  | 16 µM (≈ 51.9 µg/mL) | 8 µM (≈ 26 µg/mL) | 8 µM (≈ 26 µg/mL) |  | 
CC[C@H](C)[C@H](NC(=O)CNC(=O)[C@H](Cc1c[nH]cn1)NC(=O)[C@H](CC(N)=O)NC(=O)[C@H](CCCCN)NC(=O)[C@H](CCC(N)=O)NC(=O)[C@@H](N)CCCNC(=N)N)C(=O)N[C@@H](Cc1c[nH]cn1)C(=O)N[C@@H](Cc1ccccc1)C(=O)N[C@@H](CCCNC(=N)N)C(=O)N[C@H](C(=O)N[C@@H](CC(C)C)C(=O)N[C@@H](C)C(=O)N[C@@H](CCCCN)C(=O)N[C@@H](C)C(=O)N[C@@H](CC(C)C)C(=O)N[C@@H](CCCNC(=N)N)C(=O)O)C(C)C [Hesperelin-3] (H-RQKNHGIHFRVLAKALR-OH; N-terminus and C-terminus assumed) | Active | most potent depolarization effects |  |  |  |  |  |  |  |  |  |  |  | 
CC[C@H](C)[C@H](N)C(=O)N[C@@H](CO)C(=O)N[C@@H](CC(C)C)C(=O)N[C@@H](Cc1ccccc1)C(=O)N[C@H](C(=O)N[C@@H](CCCNC(=N)N)C(=O)N1CCC[C@H]1C(=O)N[C@@H](CC(C)C)C(=O)N[C@@H](C)C(=O)N[C@@H](CC(C)C)C(=O)NCC(=O)N[C@H](C(=O)N[C@@H](CCCNC(=N)N)C(=O)N[C@@H](CC(C)C)C(=O)O)C(C)C)[C@@H](C)CC [Psephotellin-1] (H-ISLFIRPLALGVRL-OH; N-terminus and C-terminus assumed) | Active |  | 32 µM (≈ 50.2 µg/mL) | > 128 µM |  |  |  |  |  |  |  | 16 µM (≈ 25.1 µg/mL) | 32 µM (≈ 50.2 µg/mL) | 16 µM (≈ 25.1 µg/mL)
